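The compound was tested at five concentrations on cells cultured in 96-well plates, with a 48-hour exposure period. The concentration for 50% growth inhibition is given as GI50.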 Activity calls are given as the source filed them. Cut-off read from the data, not from the text of the source: active = GI50 up to about 1.1 µM and inactive = higher.
Columns and labels:
Experiment in all cases: inhibition of tumour cell growth, NCI panel, 48 h
[1] = tested on: SK-MEL-28
[2] = tested on: K562
[3] = tested on: SK-MEL-5
[4] = tested on: HOP-18
[5] = tested on: HCC 2998
[6] = tested on: SNB-19
[7] = tested on: DLD-1
[8] = tested on: HCT-15
[9] = tested on: M19-MEL
[10] = tested on: OVCAR-5
[11] = tested on: NCI-H522
[12] = tested on: A549
[13] = tested on: OVCAR-8
[14] = tested on: TK-10
[15] = tested on: SR
[16] = tested on: SN12C
[17] = tested on: OVCAR-3
[18] = tested on: LOX IMVI
[19] = tested on: RXF 393
[20] = tested on: HL-60
[21] = tested on: SF-539
[22] = tested on: SNB-78
[23] = tested on: SF-295
[24] = tested on: CCRF-CEM
[25] = tested on: NCI-H23
[26] = tested on: M14
[27] = tested on: NCI-H226
[28] = tested on: UO-31
[29] = tested on: CAKI-1
[30] = tested on: EKVX
[31] = tested on: XF498
[32] = tested on: UACC-62
[33] = tested on: OVCAR-4
[34] = tested on: HOP-62
[35] = tested on: LXFL 529
[36] = tested on: HT-29
[37] = tested on: HOP-92
[38] = tested on: KM12
[39] = tested on: SK-MEL-2
[40] = tested on: DMS-273
[41] = tested on: SW-620
[42] = tested on: RPMI-8226
[43] = tested on: ACHN
[44] = tested on: Malme-3M
[45] = tested on: MOLT-4
[46] = tested on: COLO 205
[47] = tested on: SK-OV-3
[48] = tested on: SNB-75
[49] = tested on: U-251
[50] = tested on: RXF 631
[51] = tested on: 786-0
[52] = tested on: UACC-257
[53] = tested on: KM-20L2
[54] = tested on: IGROV-1
[55] = tested on: HCT-116
[56] = tested on: NCI-H460
[57] = tested on: A498
[58] = tested on: DMS-114
[59] = tested on: MDA-MB-231
[60] = tested on: T47D
[61] = tested on: DU-145
[62] = tested on: MCF7
[63] = tested on: BT-549
[64] = tested on: MDA-N
[65] = tested on: Hs-578T
[66] = tested on: PC-3
[67] = tested on: SF-268

O=C(CCN1CCN(c2cccc(Cl)c2)CC1)N1CCc2c([nH]c3ccccc23)C1c1cccnc1 (stereo not drawn)
GI50 [1]: 11.9 µM (inactive) | GI50 [2]: 2.78 µM (inactive) | GI50 [3]: 6.25 µM (inactive) | GI50 [4]: 12.8 µM (inactive) | GI50 [5]: 1.91 µM (inactive) | GI50 [6]: 6.82 µM (inactive) | GI50 [7]: 5.32 µM (inactive) | GI50 [8]: 3.4 µM | GI50 [9]: 13.3 µM (inactive) | GI50 [10]: 4.72 µM (inactive) | GI50 [11]: 4.19 µM (inactive) | GI50 [12]: 6.28 µM (inactive) | GI50 [13]: 6.55 µM (inactive) | GI50 [14]: 4.01 µM (inactive) | GI50 [15]: 1.75 µM (inactive) | GI50 [16]: 6.62 µM (inactive) | GI50 [17]: 2.47 µM (inactive) | GI50 [18]: 3.52 µM (inactive) | GI50 [19]: 7.4 µM (inactive) | GI50 [20]: 2.54 µM (inactive) | GI50 [21]: 13.7 µM (inactive) | GI50 [22]: 3.72 µM (inactive) | GI50 [23]: 4.72 µM (inactive) | GI50 [24]: 5.56 µM (inactive) | GI50 [25]: 7.89 µM (inactive) | GI50 [26]: 3.37 µM (inactive) | GI50 [27]: 18.6 µM (inactive) | GI50 [28]: 2.98 µM (inactive) | GI50 [29]: 3.8 µM (inactive) | GI50 [30]: 8.73 µM (inactive) | GI50 [31]: 3.27 µM (inactive) | GI50 [32]: > 10 µM (inactive) | GI50 [33]: 2.58 µM (inactive) | GI50 [34]: 9.1 µM (inactive) | GI50 [35]: 4.19 µM (inactive) | GI50 [36]: 3.56 µM (inactive) | GI50 [37]: 1.9 µM (inactive) | GI50 [38]: 3.05 µM (inactive) | GI50 [39]: 6.12 µM (inactive) | GI50 [40]: 8.28 µM (inactive) | GI50 [41]: > 10 µM (inactive) | GI50 [42]: 4.72 µM (inactive) | GI50 [43]: 4.78 µM (inactive) | GI50 [44]: 7.71 µM (inactive) | GI50 [45]: 2.95 µM (inactive) | GI50 [46]: 3.66 µM (inactive) | GI50 [47]: 6.59 µM (inactive) | GI50 [48]: 9.68 µM (inactive) | GI50 [49]: 7.08 µM (inactive) | GI50 [50]: 2.59 µM (inactive) | GI50 [51]: 4.89 µM (inactive) | GI50 [52]: 2.81 µM (inactive) | GI50 [53]: 5.52 µM (inactive) | GI50 [54]: 7.87 µM (inactive) | GI50 [55]: 7.13 µM (inactive) | GI50 [56]: 4.05 µM (inactive) | GI50 [57]: 0.282 µM (active) | GI50 [58]: 6.65 µM (inactive)

COc1ccc2nc(-c3ccc(O)cc3)cc(O)c2c1
GI50 [1]: 1.15 µM (inactive) | GI50 [2]: 0.598 µM (active) | GI50 [3]: 0.714 µM (active) | GI50 [4]: 4.78 µM (inactive) | GI50 [5]: 0.9 µM (active) | GI50 [6]: 3.75 µM (inactive) | GI50 [59]: 22.6 µM (inactive) | GI50 [7]: 1.35 µM (inactive) | GI50 [8]: 1.36 µM | GI50 [9]: 0.465 µM (active) | GI50 [10]: > 25.9 µM (inactive) | GI50 [60]: 4.73 µM (inactive) | GI50 [11]: 0.579 µM (active) | GI50 [12]: 3.7 µM (inactive) | GI50 [13]: 2.28 µM (inactive) | GI50 [14]: 8.97 µM (inactive) | GI50 [16]: 2.78 µM (inactive) | GI50 [17]: 0.887 µM (active) | GI50 [18]: 1.58 µM (inactive) | GI50 [19]: 0.137 µM (active) | GI50 [61]: 15.7 µM (inactive) | GI50 [62]: 3.52 µM (inactive) | GI50 [20]: 0.649 µM (active) | GI50 [21]: 0.826 µM (active) | GI50 [22]: 0.841 µM (active) | GI50 [23]: 2.1 µM (inactive) | GI50 [24]: 1.09 µM (active) | GI50 [25]: 1.16 µM (inactive) | GI50 [63]: 25.9 µM (inactive) | GI50 [26]: 0.857 µM (active) | GI50 [27]: 0.959 µM (active) | GI50 [64]: 2.76 µM (inactive) | GI50 [28]: 3.14 µM (inactive) | GI50 [30]: 7.06 µM (inactive) | GI50 [31]: 0.556 µM (active) | GI50 [32]: 0.697 µM (active) | GI50 [33]: 5.12 µM (inactive) | GI50 [34]: 1.42 µM (inactive) | GI50 [35]: 1.1 µM (active) | GI50 [36]: 2.26 µM (inactive) | GI50 [37]: 0.631 µM (active) | GI50 [38]: 1.03 µM (active) | GI50 [65]: 4.3 µM (inactive) | GI50 [39]: 0.679 µM (active) | GI50 [40]: 0.206 µM (active) | GI50 [41]: 1.07 µM (active) | GI50 [42]: 1.65 µM (inactive) | GI50 [43]: 3.82 µM (inactive) | GI50 [44]: 0.459 µM (active) | GI50 [45]: 1.41 µM (inactive) | GI50 [46]: 1.28 µM (inactive) | GI50 [66]: 4.78 µM (inactive) | GI50 [47]: 1.06 µM (active) | GI50 [48]: 0.434 µM (active) | GI50 [67]: 0.764 µM (active) | GI50 [49]: 0.718 µM (active) | GI50 [50]: 3.63 µM (inactive) | GI50 [51]: 2.09 µM (inactive) | GI50 [52]: 1.87 µM (inactive) | GI50 [53]: 1.7 µM (inactive) | GI50 [54]: 3.87 µM (inactive) | GI50 [55]: 0.977 µM (active) | GI50 [56]: 1.95 µM (inactive) | GI50 [57]: 0.269 µM (active) | GI50 [58]: 0.474 µM (active)

From ChEMBL document CHEMBL1201862, “PubChem BioAssay data set” (2004)
